We go through three compounds from patent US20040024005A1, “Methods and compositions for reducing the development of drug tolerance and/or physical dependence” (The Regents of the University of California, priority 2002, published 2004).

The target of data set [1] is T1, FLAG-MOR (mu opioid receptor) (Mus musculus, UniProt P42866).
T1 construct: expressed in transfected cells
Kind of data set: MOR endocytosis by antibody feeding and immunocytochemistry in HEK 293 cells. Type of data set: cell-based. The method, then: (§1) Cell culture and immunocytochemistry. Human Embryonic Kidney (HEK) 293 cells (American Type Culture Collection) were grown in DMEM (Gibco BRL) supplemented with 10% Fetal Bovine Serum (Hyclone). Mu opioid receptor and CRE-Luciferase (Promega) constructs were stably transfected using calcium phosphate co-precipitation, with single colonies chosen and propagated in the presence of selection-containing media. For immunocytochemistry, cells were grown on poly-lysine coated coverslips and incubated with 3.5 μg/ml M1 anti-FLAG and/or 3.5 μg/ml HA-11 antibody (Covance) for 30 minutes. Cells were then treated with agonist as specified, fixed in 4% formaldehyde in PBS, permeabilized in 0.1% Triton X-100 in blotto, and stained. Cells stained for only one receptor type were stained with Texas red-conjugated Donkey anti-Mouse antibody (Jackson Immunoresearch). Cells that were stained for both FLAG and HA tagged receptors simultaneously were first incubated with rabbit anti-IgG2b antibodies (Zymed) followed by staining with Texas red Donkey anti Mouse antibody (Jackson Immunoresearch) and FITC-conjugated Goat anti Mouse IgG1, antibody (Boehringer). Images were acquired using a custom-configured inverted microscope (Prairie Systems, Madison, Wis.) with a Zeiss 63× oil objective, or a Zeiss confocal with a 60× oil objective.
We next assessed whether the heterodimerization of MOR and D MOR could affect the trafficking of the receptors using immunocytochemical methods. […] Control cell lines that expressed only one of the receptors, either FLAG-MOR or HA-D MOR, were treated analogously. All cells were then permeabilized and stained with fluorescently conjugated secondary antibodies. In this way, only receptors that were initially on the cell surface were detected.
HEK 293 cells were generated that stably expressed both the FLAG-tagged MOR and an HA-tagged B2AR. The cells were incubated with antibodies to both epitope tags to label cell surface receptors, treated with various agonists or agonists combinations, then stained for both receptors. […] All treatments were for 30 minutes with 5 μM each agonist.

The target in data set [2] is T2, HA-B2AR (beta-2 adrenergic receptor) (Homo sapiens, UniProt P07550).
T2 construct: expressed in transfected cells
Kind of data set: B2AR endocytosis in HEK 293 cells expressing FLAG-MOR and HA-B2AR. The settings on record: 5 μM each agonist, 30 minutes. Type of data set: cell-based. The method, then: as §1, with “objective. […]” for “objective.”

Data set [3] in a line: Radiant heat tail-flick antinociception, intrathecal (IT) catheter. The data set is classed as in vivo, rat. An excerpt:
Animals. Male Sprague-Dawley rats (250-300 g, Simonsen Laboratories, Inc. Gilroy, Calif.) were housed individually in temperature-controlled rooms with a 12-hr light/dark cycle. Food and water were available ad libitum. All procedures used in this study were in agreement with the NIH Guide for the Care and Use of Laboratory Animals and were approved by the Animal Care and Use Committee at Gallo Center of the University of California, San Francisco.
Preparation and implantation of intrathecal (IT) catheters. […] Two types of catheters were prepared depending on the regimen for test drug delivery. […] For catheter implantation, rats were anesthetized with isoflurane and placed on a stereotaxic device with the head flexed forward. The PE-10 catheter was inserted into the spinal subarachnoid space through an incision in the atlanto-occipital membrane and advanced caudally extending to the lumbar enlargement of the spinal cord. After implantation of IT catheters, rats were returned to their home cages and allowed 7 days to recover from surgery.
Drug treatments. […] The test drug was delivered via either single injection or chronic infusion. […] DAMGO or saline was injected through one arm of the Y-shape catheter at 15 μl volume.
Antinociception test. Rats were tested for antinociception using the radiant heat tail-flick procedure. The light intensity was adjusted to achieve base-line latencies of 1.5 to 2 seconds; a maximum latency of 6 seconds was set as the cut-off time to minimize damage to the tail. […] Antinociception was tested by tail-flick 30 min after the afternoon administration. The behavioral data of antinociception were compared and statistically analyzed by two-way analysis of variance followed by Bonferroni post-test, where P<0.05 was considered significant.
(§2) Rats (4-6 per group) were implanted with an intrathecal catheter through which either an acute injection of agonist could be given or chronic drug could be administered by an osmotic mini pump.
Rats were implanted with a Y-shaped intrathecal catheter. […] Either a sub-analgesic, sub-endocytic dose of DAMGO (0.01 nmoles in 15 μl) or an equal volume of saline was administered twice daily through the other arm of the catheter. […] Analgesia was measured by tail flick latency test once per day 30 minutes following the second injection.

The target of data set [4] is T3, MORs in the lamina II neurons of the spinal cord (Rattus norvegicus, UniProt P33535).
T3 construct: from tissue; host or cells: spinal cord (lamina II, dorsal horn) of male Sprague-Dawley rats dosed intrathecally
Kind of data set: Immunohistochemical staining of MORs in lamina II spinal cord neurons after IT drug. Type of data set: in vivo. As for the experimental part: Immunohistochemistry. The rats were anesthetized with intramuscular ketamine hydrochloride (80 mg/kg) and xylazine hydrochloride (12 mg/kg) and perfused with 4% paraformaldehyde in 0.1 M phosphate buffer immediately following the tail-flick test at day 7 following pump implantation. The segment of spinal cord proximal to the tip of the catheter was dissected out, post-fixed overnight in the same fixative and then transferred to a 30% sucrose buffer solution. […] The sections were then washed and mounted on slides. MOR distribution was examined with a Zeiss confocal microscope using a 60× oil immersion objective. For quantification, slides from at least two different rats for each condition were stained by one researcher and encoded and vesicles were counted blind by a second individual from the middle section of at least 8 cells per condition. Following compilation of vesicle counts, the code was broken.
as §2
A very low dose of DAMGO was chosen to avoid confusion due to DAMGO-induced endocytosis.
To examine this possibility, we examined the distribution of the MORs in the spinal cord of the rats from the behavioral experiment.

Data set [5] can be described thus: Tail-flick antinociception and tolerance, intracerebroventricular (i.c.v.) cannula. Type of data set: in vivo, rat. From the text:
Intracerebroventricular (i.c.v.) cannula implantation. Rats were anesthetized with halothane and placed in a stereotaxic head holder. The scalp was shaved and scrubbed with alcohol. A midline sagittal incision was made, and the skull was exposed. The bone suture junctions Bregma and midline (lambda) were identified, then the location for cannula placement was marked 1 mm posterior to Bregma and 1.5 mm lateral (left) of the midline. A hole was drilled through the skull at the marked location to receive the cannula. Then, three additional holes were drilled around the first hole: anterior, lateral and posterior to the first hole, respectively, and about 3-4 mm apart from the first hole. These three holes were drilled partway through the skull to accommodate three small screws used to secure the cannula. An L-shaped cannula was inserted through the first hole in the skull to the stereotaxically correct depth 3.6 mm below the surface of the skull. The skull surface was completely dried, and the cannula and the implantation site covered with dental cement. Once the surgical procedures were done, the rat was removed from the stereotaxic device and returned to its cage and allowed 5 to 7 days to recover from surgery.
Implantation of osmotic mini-pump. After 5 to 7 days of recovery, a subcutaneous pocket in the midscapular area of the back of each rat, next to the implanted cannula (caudally), was created under light anesthesia with halothane to house the osmotic mini-pump. The subcutaneous pocket was created by first making a small incision, inserting a hemostat into the incision, and then opening and closing the hemostat to make a short subcutaneous tunnel. […] The wound was closed with sutures and the rat was returned to its cage.
Rats were tested for analgesia using the tail-flick latency test twice during the study period. The tests were conducted 30 min after the morning dose on days 1 and 5. Maximum Possible Effect (MPE) was calculated using the following equation: (Post-drug latency—baseline latency)/(cut-off latency—baseline latency)×100%.

Data set [6] in a line: Naloxone-precipitated withdrawal after i.c.v. treatment (jumping, shaking, chewing, weight loss). Conditions: naloxone 3 mg/kg i.p.; for withdrawal symptoms after naloxone (jumping, shaking, chewing, weight loss): i.c.v. twice daily for 5 days, morphine 50 nmoles, DAMGO 1.0 nmole; for withdrawal behaviours after naloxone: 20-min period. The method, then: On day 7, rats were injected intraperitoneally with 3 mg/kg naloxone and placed, individually, in Plexiglass cylinders. The rats were monitored for jumping, shaking, and chewing, and the number of occurrences of each type of behavior over a 20-min period was recorded immediately following the naloxone injection. In addition, the rats were weighed before naloxone injection and after the 20 mins of monitoring indicated above.
On day 5, 30 mins following the second drug administration, rats were injected intraperitoneally with 3 mg/kg naloxone and placed, individually, in Plexiglass cylinders. The rats were monitored for jumping, shaking, and chewing, and the number of occurrences of each type of behavior over a 20-min period was recorded immediately following the naloxone injection. In addition, the rats were weighed before naloxone injection and following the 20-min observation period indicated above.

In a further data set the target is T4, MOR-G protein coupling (Rattus norvegicus, UniProt P33535).
T4 construct: from tissue; host or cells: brain sections of male Sprague-Dawley rats treated i.c.v
Put plainly: [35S]-GTPγS binding autoradiography of brain sections (MOR-G protein coupling) after chronic treatment. The data set is classed as in vivo. The settings on record: chronic DAMGO treatment as printed; brainstem P<0.001, thalamus P<0.05.

The next data set concerns the target T5, mu-opioid receptor (Rattus norvegicus, UniProt P33535).
T5 construct: from tissue; host or cells: brain sections of male Sprague-Dawley rats treated i.c.v
Put plainly: MOR distribution in brain by immunohistochemistry after acute and chronic i.c.v. treatment. The data set is classed as in vivo. Conditions: i.c.v. acute or chronic (twice a day, 5 days); morphine 50 nmoles, DAMGO 1 nmole.

The next data set concerns the target wild type MOR (Homo sapiens, UniProt P35372). Conditions: cited from earlier work.
Another data set has as its system cAMP pathway. Kind of data set: CRE-luciferase reporter assay of cAMP superactivation in MOR-expressing HEK293 cells. The settings on record: chronic 14 hours.
Where [7] appears, read: HEK 293 cells expressing FLAG-MOR and HA-B2AR, 5 μM each agonist, 30 minutes.
Setting [8] is: acute IT injection, 30 min after, DAMGO 0.3 nmoles, morphine 30 nmoles, p<0.001.
Setting [9] is: chronic i.c.v. infusion at 25 or 75 nmoles/hr for 7 days.

T3 sequence (P33535 whole entry): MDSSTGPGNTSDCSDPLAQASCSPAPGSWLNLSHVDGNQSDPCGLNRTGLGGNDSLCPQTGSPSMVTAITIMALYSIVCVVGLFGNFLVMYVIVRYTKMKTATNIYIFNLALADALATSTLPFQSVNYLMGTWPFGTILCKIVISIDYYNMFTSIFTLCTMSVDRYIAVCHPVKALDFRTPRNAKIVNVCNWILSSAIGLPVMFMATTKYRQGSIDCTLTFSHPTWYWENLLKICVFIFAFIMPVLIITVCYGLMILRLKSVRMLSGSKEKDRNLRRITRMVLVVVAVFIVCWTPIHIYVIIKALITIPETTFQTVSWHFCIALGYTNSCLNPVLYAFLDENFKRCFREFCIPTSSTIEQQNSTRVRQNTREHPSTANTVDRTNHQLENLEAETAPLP
T1 sequence (P42866 whole entry): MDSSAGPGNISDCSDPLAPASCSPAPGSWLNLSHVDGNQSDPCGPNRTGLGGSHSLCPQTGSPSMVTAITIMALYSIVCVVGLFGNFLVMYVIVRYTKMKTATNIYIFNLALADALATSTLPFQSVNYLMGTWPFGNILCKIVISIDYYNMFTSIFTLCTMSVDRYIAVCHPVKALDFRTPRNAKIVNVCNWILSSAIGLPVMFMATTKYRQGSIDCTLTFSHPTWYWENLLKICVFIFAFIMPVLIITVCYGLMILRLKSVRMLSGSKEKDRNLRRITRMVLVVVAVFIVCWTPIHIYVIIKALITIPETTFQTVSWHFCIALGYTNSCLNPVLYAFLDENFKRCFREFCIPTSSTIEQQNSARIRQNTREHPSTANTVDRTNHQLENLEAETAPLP
Chain of wild type MOR (P35372 whole entry): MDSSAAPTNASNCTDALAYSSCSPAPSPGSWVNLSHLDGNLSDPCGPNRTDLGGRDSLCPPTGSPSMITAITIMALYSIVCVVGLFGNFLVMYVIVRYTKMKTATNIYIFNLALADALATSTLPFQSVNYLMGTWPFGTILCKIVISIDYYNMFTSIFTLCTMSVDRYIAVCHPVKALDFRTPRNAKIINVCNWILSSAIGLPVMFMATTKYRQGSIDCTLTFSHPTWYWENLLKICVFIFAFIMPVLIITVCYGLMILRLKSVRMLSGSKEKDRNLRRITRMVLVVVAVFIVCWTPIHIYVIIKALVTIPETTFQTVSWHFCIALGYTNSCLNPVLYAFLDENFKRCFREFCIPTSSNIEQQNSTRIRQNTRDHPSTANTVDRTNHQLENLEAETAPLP
T5 sequence (P33535 whole entry): as the sequence (P33535 whole entry) above
T4 sequence (P33535 whole entry): as above
T2 sequence (P07550 whole entry, species assumed): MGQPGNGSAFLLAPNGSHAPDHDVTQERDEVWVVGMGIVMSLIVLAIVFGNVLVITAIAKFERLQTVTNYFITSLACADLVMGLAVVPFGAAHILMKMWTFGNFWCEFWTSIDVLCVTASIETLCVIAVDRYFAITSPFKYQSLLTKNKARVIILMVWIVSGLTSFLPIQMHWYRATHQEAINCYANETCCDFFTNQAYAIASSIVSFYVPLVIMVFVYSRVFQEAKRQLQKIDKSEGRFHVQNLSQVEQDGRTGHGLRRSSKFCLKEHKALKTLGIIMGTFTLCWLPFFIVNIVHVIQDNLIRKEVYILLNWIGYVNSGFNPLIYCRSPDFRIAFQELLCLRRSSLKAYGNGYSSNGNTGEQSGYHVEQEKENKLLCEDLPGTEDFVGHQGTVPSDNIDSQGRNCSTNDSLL
Experimental for MOR-G protein coupling: The binding assay was carried out as follows:
Slides containing brain sections were pre-incubated in buffer (50 mM Tris, 3 mM MgCl2, 0.2 mM EGTA, 100 mM NaCl, pH 7.4) for 10 min at room temperature.
The slides were then pre-incubated in the same buffer containing 2 mM GDP for 10 min at room temperature.
The slides were incubated in the same buffer as in step 2, additionally containing 50 pM [^35S]GTPγS for 90 min at room temperature.
The slides were then rinsed twice for 2-5 min in ice-cold buffer (the same buffer as in step 1) and dipped in cold distilled water.
The slides were thoroughly dried overnight, placed in X-ray cassettes, and exposed to BioMax MS™ film with an intensifying screen for 72 hr.
After exposure, the films were developed and scanned. The regional neuroanatomy of the rat was determined with the atlas of Paxinos and Watson, and brain areas in autoradiograms were quantitated using NIH Image software. Percent stimulation was calculated from optical densities (OD) according to the following equation:
Percent stimulation=(stimulated OD−basal OD)/basal OD×100%.
Experimental for cAMP pathway: CRE-luciferase reporter expression assays. Cells were grown to confluency in 24 well plates. […] For chronic treatment experiments cells were given drug for 14 hours, rinsed 3 times in drug-free media to initiate a withdrawal phase, then given 2 μM forskolin for the 4 hour withdrawal phase, and luciferase activity measured. […] For all treatment conditions, cells were rinsed once in PBS immediately prior to luciferase measurement. 100 μl Cell Culture Lysis Reagent (Promega) was added to each well, a 20 μl cell lysate aliquot was transferred to an opaque 96 well plate, 100 μl substrate added per well using a Lucy 2 luminometer (Anthos), and light measurements collected. Data were exported to Microsoft Excel for compilation, and GraphPad Prism 3.0 for graphical display, non-linear regression curve fitting, and subsequent statistical analyses.
P<0.01, two-way ANOVA, Tukey's post test.
Experimental for mu-opioid receptor: For the acute treatment, animals were sacrificed 30 mins following the first injection. For the chronic treatment, drugs were given twice a day: morning and afternoon, in 5 μl volume for 5 days, and the animals were sacrificed 30 mins following the final injection. Rats were deeply anesthetized with halothane and perfused with 4% paraformaldehyde in 0.1 M phosphate buffer. The brains were dissected out and post-fixed overnight in the same fixative and then transferred to a 30% sucrose buffer. Coronal sections (30 um thick) were cut on cryostat at −18° C., preincubated in PBT solution (0.1 M phosphate buffer, 2% BSA, and 0.2% Triton X-100) for 30 min, blocked in 5% normal goat serum in PBT solution for another 30 min, and then incubated with a rabbit anti-mu opioid receptor antibody at 1:5000 and mouse and NeuN antibody (which recognizes the neuronal-specific protein NeuN) at 1:5000 overnight at 4° C. […] The sections were then washed and mounted onto slides. The mu-opioid receptors and NeuN were visualized using a Zeiss confocal microscope with a 60× oil immersion objective.

As to `C[C@@H](NC(=O)[C@@H](N)Cc1ccc(O)cc1)C(=O)NCC(=O)N(C)[C@@H](Cc1ccccc1)C(=O)NCCO` [DAMGO], the MOR endocytosis entry in data set [1] (setting [7]) is “promoted endocytosis of the MOR”; in data set [1] (HEK 293 cells expressing only MOR, 5 μM, 30 minutes (saturating dose)), “robust endocytosis of receptor”; in data set [1] (HEK 293 cells expressing only MOR, non-saturating DAMGO 100 nM alone) it was “significantly less receptor endocytosis”; at wild type MOR, “promotes robust endocytosis of the MOR”. In addition, in data set [2], the B2AR endocytosis entry is “not B2AR”. In addition, the “analgesia (tail flick latency)” value in data set [3] (0.01 nmoles IT twice daily, saline from mini pump, 7 days) was “produced no analgesia”; in data set [3] (acute IT injection, 30 min after, 0.01 nmoles, p>0.05), “no analgesic effect”; in [3] (setting [8]), “produced significant analgesia”. The “MOR endocytosis in lamina II neurons” value in data set [4] (acute IT, 0.01 nmoles alone) is “nor detectable MOR endocytosis”. Further, the “MOR distribution / endocytosis in lamina II neurons” value in [4] (acute IT, DAMGO 0.3 nmoles, equi-analgesic morphine 30 nmoles) was “pronounced receptor endocytosis”. Moreover, the “distribution of MORs in spinal cord neurons” value in [4] (day 7 of chronic IT treatment, morphine mini pump and/or DAMGO 0.01 nmoles twice daily) is listed as “indistinguishable from animals given only saline”. In addition, in data set [5] (i.c.v. 1 nmole twice a day for 5 days, day 5 vs day 1), the “reduction in antinociception (percent MPE) after 5-day treatment” value is “much smaller reduction in antinociception”. Also, in data set [6], the “withdrawal symptoms after naloxone (jumping, shaking, chewing, weight loss)” value was “no jumping and less shaking, chewing, and weight loss”. Also, the “MOR-G protein coupling in the brainstem and thalamus” value at MOR-G protein coupling was “reduction MOR-G protein coupling”. Further, on mu-opioid receptor, the “promotes substantial MOR endocytosis in brain (striatum, globus pallidus, ventral tegumental area)” value is given as “does”. In addition, the “superactivation of the cAMP pathway relative to untreated cells” value in the data set with cAMP pathway (10 nM alone) was “little superactivation”; with cAMP pathway (1 μM, 100 nM, 10 nM or 1 nM), “superactivation in a dose dependent manner”.

On to `CC(C)NCC(O)c1ccc(O)c(O)c1` (stereo not drawn) [isoproterenol], for which, in data set [1] (setting [7]), the MOR endocytosis result is on record as “not MOR”.

Turning to `CN1CC[C@]23c4c5ccc(O)c4O[C@H]2[C@@H](O)C=C[C@H]3[C@H]1C5` [morphine, (5α,6α)-7,8-didehydro-4,5-epoxy-17-methylmorphinan-3,6-diol], the “time to development of tolerance” value in [3] (Y-shaped IT catheter, chronic morphine mini pump plus twice daily saline injections) is on record as no more than 4 days. Moreover, the “antinociception early in the experiment / day one” value in data set [3] (Y-shaped IT catheter, chronic morphine mini pump plus twice daily saline or DAMGO 0.01 nmoles) is recorded as “pronounced antinociception early in the experiment”. In addition, the “analgesia (tail flick latency)” value in data set [3] (setting [8]) was “produced significant analgesia”. Also, in data set [3] (chronic IT infusion at 2, 6, or 18 nmoles/hr, 7 days), the “loss of antinociception (tolerance)” value was “eventually lost completely over 7 days”. In addition, the “antinociceptive effect (tail flick latency)” value in data set [3] (chronic IT infusion at 2, 6, or 18 nmoles/hr, early days) is given as “significant antinociceptive effect for the first few days”. Further, in data set [5] (setting [9]), the “duration of significant antinociceptive effect” value fell in the range of 3 to 4 days and the tolerance entry is “causes tolerance in a dose-dependent manner”. Also, the “reduction in antinociceptive effect (percent MPE) after 5-day treatment” value in data set [5] (i.c.v. 50 nmoles twice a day for 5 days, day 5 vs day 1) is 30-40%. Besides, the “withdrawal behaviours after naloxone” value in data set [6] (i.c.v. 25 nmoles/hr for 7 days) is “increases in shaking and chewing”. The “withdrawal behaviours after naloxone” value in data set [6] (i.c.v. 75 nmoles/hr for 7 days) was “increases in jumping, shaking, and chewing”. Also, the “weight loss after naloxone” value in data set [6] (i.c.v. 25 or 75 nmoles/hr for 7 days) is “dose-dependent weight loss”. The “withdrawal symptoms after naloxone (jumping, shaking, chewing, weight loss)” value in data set [6] is “produced jumping, shaking, and chewing and weight loss”.
